Data on ten compounds can be found in ChEMBL document CHEMBL1201862, “PubChem BioAssay data set” (2004).

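Grown in 96-well plates, cells were treated for 48 hours with each compound at five concentrations. Insufficient inhibition: endpoint recorded as highest concentration tested. GI50 marks 50% less growth.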 The source made the active and inactive calls. No stated cut-off is given here; in the data, active = GI50 up to about 1.1 µM and inactive = higher.

Test systems include SK-OV-3; EKVX; SF-539; UACC-62; SF-295; SK-MEL-2; IGROV-1; UO-31; CCRF-CEM; A549; HT-29; OVCAR-3; NCI-H522; HCC 2998; HOP-92.
Test in all cases: inhibition of tumour cell growth, NCI panel, 48 h

Consider `O=C(O)c1cn2c3c(cc(N4CCN(CCO)CC4)cc3c1=O)SCC2`, for which the GI50 in the assay with SK-OV-3 was > 100 µM (inactive); in the assay with EKVX, > 100 µM (inactive); with SF-539, 46.1 µM (inactive); with UACC-62, > 78.2 µM (inactive); with SF-295 it was > 100 µM (inactive); with SK-MEL-2, 48.4 µM (inactive). Moreover, the GI50 with IGROV-1 is > 100 µM (inactive); with UO-31 it was > 100 µM (inactive); in the assay on CCRF-CEM, 48.8 µM (inactive); in the assay with A549, > 100 µM (inactive); in the assay on HT-29 it was > 100 µM (inactive); in the assay with OVCAR-3, 58.6 µM (inactive). In addition, the GI50 is 26.5 µM (inactive) with NCI-H522, 33 µM (inactive) with HCC 2998 and 59.6 µM (inactive) in the assay on HOP-92.

In the case of `Cc1ccc(C)c(NC(=O)C(=O)C(C(=O)c2ccc3ccccc3c2)C2OC(=O)c3ccccc32)c1` (stereo not given), the GI50 in the assay on SK-OV-3 was 14.3 µM (inactive); in the assay with EKVX it was 16.5 µM (inactive); with SF-539, 4.75 µM (inactive); in the assay with UACC-62, 14.6 µM (inactive); in the assay with SF-295, 10.4 µM (inactive); in the assay with SK-MEL-2, 13.6 µM (inactive). Also, the GI50 is 18.2 µM (inactive) with IGROV-1; 16.5 µM (inactive) with UO-31; 10.9 µM (inactive) in the assay on CCRF-CEM; 18.2 µM (inactive) in the assay with A549; 28.1 µM (inactive) in the assay on HT-29; 10 µM (inactive) in the assay on NCI-H522. Also, the GI50 in the assay with HCC 2998 is 15 µM (inactive); in the assay with HOP-92 it was 26.1 µM (inactive).

As for `OC1CCSc2ccccc21` (stereo not given), the GI50 in the assay with SK-OV-3, in the assay on EKVX, in the assay on SF-539, in the assay on UACC-62, in the assay with SK-MEL-2 and in the assay with IGROV-1 was > 100 µM (inactive) throughout. Moreover, the GI50 with UO-31, with CCRF-CEM, in the assay on A549, with HT-29, in the assay with OVCAR-3 and in the assay on NCI-H522 was > 100 µM (inactive) throughout. The GI50 with HCC 2998 was > 100 µM (inactive).

Take `CC[C@@]1(O)C[C@H](OC2CC(N(C)C)C(O)C(C)O2)c2c(cc3c(c2O)C(=O)c2c(O)ccc(O)c2C3=O)[C@H]1C(=O)OC` (stereo not given in full): the GI50 was 0.236 µM (active) in the assay on SK-OV-3; 0.135 µM (active) in the assay with EKVX; 0.0895 µM (active) with SF-539; 0.0451 µM (active) with UACC-62; 0.032 µM (active) in the assay with SF-295; 0.101 µM (active) in the assay with SK-MEL-2. Also, the GI50 in the assay with IGROV-1 was 0.0468 µM (active); with UO-31, 0.158 µM (active); in the assay with CCRF-CEM it was 0.0242 µM (active); in the assay with A549, 0.0365 µM (active); with HT-29 it was 0.0388 µM (active); in the assay on OVCAR-3, 0.149 µM (active). The GI50 with NCI-H522 was 0.0521 µM (active); in the assay with HCC 2998, 0.162 µM (active); with HOP-92 it was 0.256 µM (active).

`O=C(Nc1ccc(Cl)cc1)C(=O)C(C(=O)c1ccccc1-c1ccccc1)C1OC(=O)c2ccccc21` (stereo not given): the GI50 with SK-OV-3 was 27.6 µM (inactive); with EKVX it was 18.2 µM (inactive); in the assay with SF-539, 22.5 µM (inactive); with UACC-62, 15.9 µM (inactive); with SF-295, 26.9 µM (inactive); with SK-MEL-2 it was 20.8 µM (inactive). The GI50 is 29.1 µM (inactive) with IGROV-1; 19.4 µM (inactive) in the assay with UO-31; 18.2 µM (inactive) with CCRF-CEM; 23.6 µM (inactive) in the assay with A549; 23.1 µM (inactive) with HT-29; 14.2 µM (inactive) in the assay with NCI-H522. Besides, the GI50 in the assay on HCC 2998 was 19.4 µM (inactive); in the assay on HOP-92 it was 27 µM (inactive).

As to `O=C(N/C=C1\C(=O)Oc2ccccc2C1=O)NC1CCCCC1`, the GI50 in the assay with EKVX was > 100 µM (inactive); in the assay with SF-539 it was > 100 µM (inactive); in the assay on UACC-62, 28 µM (inactive); with SK-MEL-2 it was 24.2 µM (inactive); with IGROV-1, 56.5 µM (inactive); in the assay with UO-31 it was 21.3 µM (inactive). The GI50 in the assay on A549 was > 100 µM (inactive); in the assay with HT-29, > 100 µM (inactive); with HCC 2998 it was > 100 µM (inactive); in the assay on HOP-92, 18.5 µM (inactive).

`CC(C)=CC1CC(=O)C1(C)Sc1ccccc1` (stereo not given): the GI50 in the assay on SK-OV-3 is > 100 µM (inactive); in the assay on EKVX, 54.2 µM (inactive); in the assay on SF-539 it was > 100 µM (inactive); in the assay with UACC-62, > 100 µM (inactive); with SF-295, > 100 µM (inactive); in the assay on SK-MEL-2, 35.2 µM (inactive). In addition, the GI50 with IGROV-1 is > 100 µM (inactive); in the assay on UO-31, 50.2 µM (inactive); in the assay on CCRF-CEM, 19.1 µM (inactive); in the assay with A549, 48.2 µM (inactive); with HT-29, 27.4 µM (inactive); in the assay on OVCAR-3 it was 52.4 µM (inactive). Moreover, the figures for the GI50 in the assay with NCI-H522, in the assay on HCC 2998 and with HOP-92 were 24 µM (inactive), > 100 µM (inactive) and 29.9 µM (inactive), respectively.

Take `O=S(=O)(O)c1ccc(/N=N\c2ccc(/N=N\c3ccc(/C=C/c4ccc(/N=[N+](/[O-])c5ccc(/C=C/c6ccc(/N=N/c7ccc(/N=N\c8ccc(S(=O)(=O)O)cc8)cc7)cc6S(=O)(=O)O)c(S(=O)(=O)O)c5)cc4S(=O)(=O)O)c(S(=O)(=O)O)c3)cc2)cc1`: the GI50 in the assay on SK-OV-3, in the assay with EKVX, in the assay on SF-539, in the assay with UACC-62, in the assay on SF-295 and in the assay with SK-MEL-2 was > 100 µM (inactive) in each case. Moreover, the GI50 in the assay with IGROV-1, with UO-31, with CCRF-CEM, with A549, with HT-29 and with OVCAR-3 was > 100 µM (inactive) in each case. Further, the GI50 in the assay on NCI-H522 was 86.3 µM (inactive); with HCC 2998, > 100 µM (inactive); in the assay with HOP-92, > 100 µM (inactive).

Turning to `COc1cc(O)c2c(c1)C(=O)c1cc3c(c(O)c1C2=O)C(OC1OC(C)C(O)C(O)C1OC)C(OC)C(C)(O)C3=O` (stereo not given), the GI50 was 3.2 µM (inactive) with SK-OV-3; 2.43 µM (inactive) in the assay with EKVX; 1.85 µM (inactive) in the assay on SF-539; 1.38 µM (inactive) in the assay on UACC-62; 1.82 µM (inactive) with SF-295; 3.65 µM (inactive) in the assay with SK-MEL-2. The GI50 in the assay with IGROV-1 is 2.52 µM (inactive); with UO-31 it was 2.09 µM (inactive); in the assay on A549, 3.71 µM (inactive); in the assay on HT-29, 1.17 µM (inactive); in the assay on OVCAR-3, 0.439 µM (active); with NCI-H522 it was 1.93 µM (inactive). Besides, the GI50 in the assay with HCC 2998 is 4.23 µM (inactive); in the assay on HOP-92, 0.436 µM (active).

For `O=Cc1c(Cn2ccnc2)c2cc([N+](=O)[O-])ccc2n1Cc1ccccc1`, the GI50 in the assay with SK-OV-3 was > 100 µM (inactive); with EKVX, > 100 µM (inactive); in the assay with SF-539 it was > 72.6 µM (inactive); with UACC-62, > 100 µM (inactive); with SF-295 it was 36.8 µM (inactive); in the assay on SK-MEL-2, > 100 µM (inactive). Moreover, the GI50 in the assay on IGROV-1 is > 83 µM (inactive); with UO-31 it was > 60.1 µM (inactive); in the assay on CCRF-CEM, 63.5 µM (inactive); in the assay on A549, 51.9 µM (inactive); in the assay with HT-29, > 100 µM (inactive); in the assay with OVCAR-3, > 100 µM (inactive). For the same compound, the GI50 with NCI-H522, in the assay on HCC 2998 and in the assay on HOP-92 was > 100 µM (inactive) throughout.
